As usually defined, the melting point is the temperature, or range, at which the solid turns liquid. The compound `CC(C)(O)C#Cc1nccs1` [Example 2, 2-Methyl-4-(1,3-thiazol-2-yl)-3-butyn-2-ol] registered a melting point of 69 to 70 °C. Compound `Clc1cncc(C#Cc2nccs2)c1` [Example 6, 3-Chloro-5-(1,3-thiazol-2-ylethynyl)pyridine] gave a melting point of 124 to 125 °C.

(Values after patent US20050043307A1, “Pyridazine, pyrimidine and pyrazine ethyne compounds” (priority 1999, published 2005).)
